Measured values published in the supplement of paper PMC10307832.

Assays:
Test in all cases: relative viability (nuclei count vs DMSO), 5 days (fraction); higher = more cells survive
BX 795 = compound: O=C(NCCCNc1nc(Nc2cccc(NC(=O)N3CCCC3)c2)ncc1I)c1cccs1 [BX 795]
Method in brief: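 Lung cancer cell lines received five library-drug doses (not always all listed) spaced by √10, pinned on vehicle-anchored 1536-well plates after an overnight stay at 37 °C. Five days later, with no medium change, nuclei were Hoechst-stained, imaged at 4× and counted with MetaXpress. Viability is treated-well nuclei relative to vehicle-well nuclei, as a median across plates. Passing plates had control CV below 25% and at least one doubling.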

BX 795 + Alpelisib = compound: O=C(NCCCNc1nc(Nc2cccc(NC(=O)N3CCCC3)c2)ncc1I)c1cccs1 [BX 795] + Cc1nc(NC(=O)N2CCC[C@H]2C(N)=O)sc1-c1ccnc(C(C)(C)C(F)(F)F)c1 [Alpelisib] (partner 2 µM)
Method in brief: (§1)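 Relative viability equals treated-well nuclei counts divided by vehicle-well nuclei counts. Counts came from 4× images of lung cancer cell lines grown in 1536-well plates for 5 days after pin-tool dosing on the day after seeding. Dosing used one drug alone or a fixed anchor-drug dose plus five library-drug doses (not always all listed) in √10 steps, and values are medians of duplicate plates.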

BX 795 + Pictilisib = compound: O=C(NCCCNc1nc(Nc2cccc(NC(=O)N3CCCC3)c2)ncc1I)c1cccs1 [BX 795] + CS(=O)(=O)N1CCN(Cc2cc3nc(-c4cccc5[nH]ncc45)nc(N4CCOCC4)c3s2)CC1 [Pictilisib] (partner 1 µM)
Method in brief: as §1

BX 795 + Lapatinib = compound: O=C(NCCCNc1nc(Nc2cccc(NC(=O)N3CCCC3)c2)ncc1I)c1cccs1 [BX 795] + CS(=O)(=O)CCNCc1ccc(-c2ccc3ncnc(Nc4ccc(OCc5cccc(F)c5)c(Cl)c4)c3c2)o1 [Lapatinib] (partner 2 µM)
Method in brief: as §1

BX 795 + Vorinostat = compound: O=C(NCCCNc1nc(Nc2cccc(NC(=O)N3CCCC3)c2)ncc1I)c1cccs1 [BX 795] + O=C(CCCCCCC(=O)Nc1ccccc1)NO [Vorinostat] (partner 1 µM)
Method in brief: as §1

BX 795 + Bortezomib = compound: O=C(NCCCNc1nc(Nc2cccc(NC(=O)N3CCCC3)c2)ncc1I)c1cccs1 [BX 795] + CC(C)C[C@H](NC(=O)[C@H](Cc1ccccc1)NC(=O)c1cnccn1)B(O)O [Bortezomib] (partner 0.002 µM)
Method in brief: as §1

BX 795 + Navitoclax = compound: O=C(NCCCNc1nc(Nc2cccc(NC(=O)N3CCCC3)c2)ncc1I)c1cccs1 [BX 795] + CC1(C)CCC(c2ccc(Cl)cc2)=C(CN2CCN(c3ccc(C(=O)NS(=O)(=O)c4ccc(N[C@H](CCN5CCOCC5)CSc5ccccc5)c(S(=O)(=O)C(F)(F)F)c4)cc3)CC2)C1 [Navitoclax] (partner 0.5 µM)
Method in brief: as §1

BX 795 + Linsitinib = compound: O=C(NCCCNc1nc(Nc2cccc(NC(=O)N3CCCC3)c2)ncc1I)c1cccs1 [BX 795] + C[C@]1(O)C[C@@H](c2nc(-c3ccc4ccc(-c5ccccc5)nc4c3)c3c(N)nccn32)C1 [Linsitinib] (partner 1 µM)
Method in brief: as §1

BX 795 + Crizotinib = compound: O=C(NCCCNc1nc(Nc2cccc(NC(=O)N3CCCC3)c2)ncc1I)c1cccs1 [BX 795] + C[C@@H](Oc1cc(-c2cnn(C3CCNCC3)c2)cnc1N)c1c(Cl)ccc(F)c1Cl [Crizotinib] (partner 1 µM)
Method in brief: as §1

BX 795 + Foretinib = compound: O=C(NCCCNc1nc(Nc2cccc(NC(=O)N3CCCC3)c2)ncc1I)c1cccs1 [BX 795] + COc1cc2c(Oc3ccc(NC(=O)C4(C(=O)Nc5ccc(F)cc5)CC4)cc3F)ccnc2cc1OCCCN1CCOCC1 [Foretinib] (partner 0.25 µM)
Method in brief: as §1

BX 795 + Olaparib = compound: O=C(NCCCNc1nc(Nc2cccc(NC(=O)N3CCCC3)c2)ncc1I)c1cccs1 [BX 795] + O=C(c1cc(Cc2n[nH]c(=O)c3ccccc23)ccc1F)N1CCN(C(=O)C2CC2)CC1 [Olaparib] (partner 8 µM)
Method in brief: as §1

IA-LM
relative viability (BX 795; 0.04 µM): 1.02
relative viability (BX 795; 0.1265 µM): 1.03
relative viability (BX 795; 0.4 µM): 1.12
relative viability (BX 795; 1.265 µM): 0.86
relative viability (BX 795 + Alpelisib; first compound 0.04 µM): 0.844
relative viability (BX 795 + Alpelisib; first compound 0.1265 µM): 0.636
relative viability (BX 795 + Alpelisib; first compound 0.4 µM): 0.614
relative viability (BX 795 + Alpelisib; first compound 1.265 µM): 0.666
relative viability (BX 795 + Pictilisib; first compound 0.04 µM): 0.367
relative viability (BX 795 + Pictilisib; first compound 0.1265 µM): 0.311
relative viability (BX 795 + Pictilisib; first compound 0.4 µM): 0.531
relative viability (BX 795 + Pictilisib; first compound 1.265 µM): 0.332
relative viability (BX 795 + Lapatinib; first compound 0.04 µM): 0.94
relative viability (BX 795 + Lapatinib; first compound 0.1265 µM): 0.994
relative viability (BX 795 + Lapatinib; first compound 0.4 µM): 1.5
relative viability (BX 795 + Lapatinib; first compound 1.265 µM): 0.544
relative viability (BX 795 + Vorinostat; first compound 0.04 µM): 0.79
relative viability (BX 795 + Vorinostat; first compound 0.1265 µM): 1.06
relative viability (BX 795 + Vorinostat; first compound 0.4 µM): 0.992
relative viability (BX 795 + Vorinostat; first compound 1.265 µM): 0.892
relative viability (BX 795 + Bortezomib; first compound 0.04 µM): 0.655
relative viability (BX 795 + Bortezomib; first compound 0.1265 µM): 0.841
relative viability (BX 795 + Bortezomib; first compound 0.4 µM): 0.974
relative viability (BX 795 + Bortezomib; first compound 1.265 µM): 0.54
relative viability (BX 795 + Navitoclax; first compound 0.04 µM): 0.755
relative viability (BX 795 + Navitoclax; first compound 0.1265 µM): 0.725
relative viability (BX 795 + Navitoclax; first compound 0.4 µM): 0.952
relative viability (BX 795 + Navitoclax; first compound 1.265 µM): 0.52
relative viability (BX 795 + Linsitinib; first compound 0.04 µM): 0.615
relative viability (BX 795 + Linsitinib; first compound 0.1265 µM): 0.452
relative viability (BX 795 + Linsitinib; first compound 0.4 µM): 0.769
relative viability (BX 795 + Linsitinib; first compound 1.265 µM): 0.626
relative viability (BX 795 + Crizotinib; first compound 0.04 µM): 0.78
relative viability (BX 795 + Crizotinib; first compound 0.1265 µM): 0.936
relative viability (BX 795 + Crizotinib; first compound 0.4 µM): 1.32
relative viability (BX 795 + Crizotinib; first compound 1.265 µM): 0.546
relative viability (BX 795 + Foretinib; first compound 0.04 µM): 1.15
relative viability (BX 795 + Foretinib; first compound 0.1265 µM): 1.19
relative viability (BX 795 + Foretinib; first compound 0.4 µM): 1.28
relative viability (BX 795 + Foretinib; first compound 1.265 µM): 0.628
relative viability (BX 795 + Olaparib; first compound 0.04 µM): 0.783
relative viability (BX 795 + Olaparib; first compound 0.1265 µM): 0.797
relative viability (BX 795 + Olaparib; first compound 0.4 µM): 0.768
relative viability (BX 795 + Olaparib; first compound 1.265 µM): 0.757

Calu-6
relative viability (BX 795; 0.04 µM): 0.98
relative viability (BX 795; 0.1265 µM): 1
relative viability (BX 795; 0.4 µM): 0.716
relative viability (BX 795; 1.265 µM): 0.665
relative viability (BX 795 + Alpelisib; first compound 0.04 µM): 1.1
relative viability (BX 795 + Alpelisib; first compound 0.1265 µM): 0.919
relative viability (BX 795 + Alpelisib; first compound 0.4 µM): 0.585
relative viability (BX 795 + Alpelisib; first compound 1.265 µM): 0.509
relative viability (BX 795 + Pictilisib; first compound 0.04 µM): 0.896
relative viability (BX 795 + Pictilisib; first compound 0.1265 µM): 0.966
relative viability (BX 795 + Pictilisib; first compound 0.4 µM): 0.518
relative viability (BX 795 + Pictilisib; first compound 1.265 µM): 0.505
relative viability (BX 795 + Lapatinib; first compound 0.04 µM): 1.02
relative viability (BX 795 + Lapatinib; first compound 0.1265 µM): 1.1
relative viability (BX 795 + Lapatinib; first compound 0.4 µM): 0.843
relative viability (BX 795 + Lapatinib; first compound 1.265 µM): 0.552
relative viability (BX 795 + Bortezomib; first compound 0.04 µM): 1.04
relative viability (BX 795 + Bortezomib; first compound 0.1265 µM): 1.02
relative viability (BX 795 + Bortezomib; first compound 0.4 µM): 0.831
relative viability (BX 795 + Bortezomib; first compound 1.265 µM): 0.525
relative viability (BX 795 + Navitoclax; first compound 0.04 µM): 0.825
relative viability (BX 795 + Navitoclax; first compound 0.1265 µM): 0.874
relative viability (BX 795 + Navitoclax; first compound 0.4 µM): 0.727
relative viability (BX 795 + Navitoclax; first compound 1.265 µM): 0.389
relative viability (BX 795 + Linsitinib; first compound 0.04 µM): 0.883
relative viability (BX 795 + Linsitinib; first compound 0.1265 µM): 1.06
relative viability (BX 795 + Linsitinib; first compound 0.4 µM): 0.533
relative viability (BX 795 + Linsitinib; first compound 1.265 µM): 0.726
relative viability (BX 795 + Crizotinib; first compound 0.04 µM): 0.728
relative viability (BX 795 + Crizotinib; first compound 0.1265 µM): 0.777
relative viability (BX 795 + Crizotinib; first compound 0.4 µM): 0.556
relative viability (BX 795 + Crizotinib; first compound 1.265 µM): 0.249
relative viability (BX 795 + Foretinib; first compound 0.04 µM): 0.91
relative viability (BX 795 + Foretinib; first compound 0.1265 µM): 0.84
relative viability (BX 795 + Foretinib; first compound 0.4 µM): 0.557
relative viability (BX 795 + Foretinib; first compound 1.265 µM): 0.555
relative viability (BX 795 + Olaparib; first compound 0.04 µM): 0.559
relative viability (BX 795 + Olaparib; first compound 0.1265 µM): 0.591
relative viability (BX 795 + Olaparib; first compound 0.4 µM): 0.283
relative viability (BX 795 + Olaparib; first compound 1.265 µM): 0.336
